pIC50: −log10 of the molar value.
Tests used:
Format in all cases: functional, cell-based
KB = assay: Cytotoxicity against human vincristine-sensitive KB cells assessed as cell viability after 72 hrs by MTT assay
[1] = Cytotoxicity against human KB/VJ300 cells assessed as cell viability after 72 hrs by MTT assay; conditions: KB/VJ300, 72 h
A549 = assay: Cytotoxicity against human A549 cells assessed as cell viability after 72 hrs by MTT assay; conditions: A549, 72 h
[2] = Cytotoxicity against human PC3 cells assessed as cell viability after 72 hrs by MTT assay; conditions: PC-3, 72 h
MCF7 = assay: Cytotoxicity against human MCF7 cells assessed as cell viability after 72 hrs by MTT assay; conditions: MCF7, 72 h
[3] = Cytotoxicity against human KB/VJ300 cells assessed as cell viability after 72 hrs by MTT assay in presence of 0.121 uM vincristine; conditions: KB/VJ300, 72 h
[4] = Cytotoxicity against human HCT116 cells assessed as cell viability after 72 hrs by MTT assay; conditions: HCT-116, 72 h

Row | SMILES | IC50 (KB) [µg/mL] | IC50 [1] [µg/mL] | pIC50 (KB) | pIC50 [1] | IC50 (A549) [µg/mL] | pIC50 [2] | pIC50 (MCF7) | pIC50 [3] | pIC50 [4] | pIC50 (A549) | IC50 [2] [µg/mL] | IC50 (MCF7) [µg/mL] | IC50 [3] [µg/mL] | IC50 [4] [µg/mL]
1 | O=C1OC2CN3CCC[C@]45CC[C@@]6(Nc7ccccc7[C@@]26[C@@H]34)[C@@H]1C5 (stereo partly specified) | > 25 | > 25 |  |  |  |  |  |  |  |  |  |  |  | 
2 | COc1ccc(CCN(C)CCCC(C#N)(c2ccc(OC)c(OC)c2)C(C)C)cc1OC (stereo unspecified) | > 25 |  |  |  |  |  |  |  |  |  |  |  |  | 
3 | CC[C@]1(O)C[C@H]2CN(CCc3c([nH]c4ccccc34)[C@@](C(=O)OC)(c3cc4c(cc3OC)N(C=O)[C@H]3[C@@](O)(C(=O)OC)[C@H](OC(C)=O)[C@]5(CC)C=CCN6CC[C@]43[C@@H]65)C2)C1 [VINCRISTINE] |  |  | 8.48 | 5.12 |  |  |  |  |  |  |  |  |  | 
4 | COC(=O)[C@@H]1C[C@]23CC[C@@]14Nc1ccccc1[C@@]41CCN(C(=O)C2)[C@@H]31 | > 25 | > 25 |  |  |  |  |  |  |  |  |  |  |  | 
5 | CC(=O)[C@@]12CCCN3CCc4c(n(c5ccccc45)[C@@H](O)C1)[C@H]32 | > 25 | > 25 |  |  |  |  |  |  |  |  |  |  |  | 
6 | COC(=O)[C@@H]1C[C@]23CC[C@@]14Nc1ccccc1[C@@]41CCN(C=C(C=O)C2)[C@@H]31 | > 25 | > 25 |  |  |  |  |  |  |  |  |  |  |  | 
7 | CCO[C@H]1C[C@@]2([C@@H](C)O)CCCN3CCc4c(n1c1ccccc41)[C@H]32 | > 25 | > 25 |  |  |  |  |  |  |  |  |  |  |  | 
8 | COC(=O)[C@@H]1C[C@@]23CCCN4CC[C@@]5(c6ccc([C@@H]7C[C@@]8([C@@H](C)O)CCCN9CCc%10c(n7c7ccccc%107)[C@H]98)cc6N[C@]15CC2)[C@@H]43 |  | > 25 | 4.54 |  | > 25 | 4.82 | 4.65 | 4.87 | 4.60 |  |  |  |  | 
9 | COC(=O)N1c2c(OC)cccc2[C@]23C4C(=O)[C@H]5C[C@@]6(CCCN(C4=O)[C@@H]62)CC[C@]513 (stereo partly specified) | > 25 | > 25 |  |  |  |  |  |  |  |  |  |  |  | 
10 | C[C@@H](O)[C@]12C=Cn3c4c(c5ccccc53)CCN(CCC1)[C@@H]42 | > 25 | > 25 |  |  |  |  |  |  |  |  |  |  |  | 
11 | C[C@H]1O[C@@H]2C[C@]13CCCN1CC[C@]4(C(=O)c5ccccc5N24)[C@H]13 | > 25 | > 25 |  |  |  |  |  |  |  |  |  |  |  | 
12 | O=C1OC2C(=O)N3CCC[C@]45CC[C@@]6(Nc7ccccc7[C@@]26[C@@H]34)[C@@H]1C5 (stereo partly specified) | > 25 | > 25 |  |  |  |  |  |  |  |  |  |  |  | 
13 | CC[C@@]12CCCN3CCc4c(n(c5ccccc45)[C@H](c4ccc5c(c4)N[C@@]46CC[C@]7(CCCN8CC[C@]54[C@@H]87)C[C@H]6C(=O)OC)C1)[C@H]32 |  |  | 4.62 | 4.43 |  | 4.94 | 4.80 | 5.11 | 4.91 | 4.48 |  |  |  | 
14 | COC(=O)N1c2c(ccc3c2OCO3)[C@@]23C4CN5CCC[C@]6(CC[C@]12[C@](O)(C6)OC4=O)[C@H]53 (stereo partly specified) | > 25 | > 25 |  |  |  |  |  |  |  |  |  |  |  | 
15 | CC[C@@]12CCCN3CCc4c(n(c5ccccc45)[C@H](c4ccc5c(c4)N[C@@]46CC[C@]7(CCCN8CC[C@]54[C@@H]87)C[C@H]6C(=O)O)C1)[C@H]32 | > 25 | > 25 |  |  | > 25 |  |  |  |  |  | > 25 | > 25 | > 25 | > 25
16 | COC(=O)[C@@H]1C[C@]23CC[C@@]14Nc1ccccc1[C@@]41CCN(C4=CC(=O)C[C@H]4C2)[C@@H]31 | > 25 | > 25 |  |  |  |  |  |  |  |  |  |  |  | 

Reference: ChEMBL document CHEMBL3779857, “Aspidofractinine and Eburnane Alkaloids from a North Borneo Kopsia. Ring-Contracted, Additional Ring-Fused, and Paucidactine-Type Aspidofractinine Alkaloids from K. pauciflora” (J Nat Prod, 2016)
